The source of these data is ChEMBL document CHEMBL1201862, “PubChem BioAssay data set” (2004).

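Dose response: 5 concentrations. Exposure: 48 h. Format: 96-well plates. Endpoint: linear interpolation; highest concentration if not reached. Abbreviation: GI50, concentration required for 50% inhibition of growth.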 The source made the active and inactive calls. Cut-off read from the data, not from the text of the source: active = GI50 up to about 1.1 µM and inactive = higher. Bounds are passed on as bounds.

Assay in all cases: inhibition of tumour cell growth, NCI panel, 48 h
Assay [1] deals with OVCAR-3.
In assay [2] the test system is SK-MEL-28.
The test system of assay [3] is UO-31.
The test system of assay [4] is 786-0.
Assay [5] relates to NCI-H23.
Assay [6] deals with ACHN.
The test system of assay [7] is PC-3.
The subject of assay [8] is M14.
Assay [9] relates to NCI/ADR-RES.
Assay [10] relates to HOP-62.
Assay [11] has as its system SF-539.
Assay [12] concerns DU-145.
Assay [13] concerns COLO 205.
Assay [14] concerns KM12.
Assay [15] deals with OVCAR-8.
Assay [16] relates to HT-29.
In assay [17] the test system is MDA-MB-231.
The subject of assay [18] is SK-OV-3.
For assay [19], the system named is Malme-3M.
Assay [20] relates to SNB-75.

For `Cc1ccc(-c2ccc(Nc3c4ccccc4nc4ccccc34)cc2)cn1`, the GI50 in [1] is 2.63 µM (inactive); in [2], 2.51 µM (inactive); in assay [3] it was 3.13 µM (inactive); in assay [4], 1.66 µM (inactive); in [5] it was 4.66 µM (inactive); in assay [6], 2.32 µM (inactive). Further, the GI50 in assay [7] was 4.97 µM (inactive); in assay [8], 2.95 µM (inactive); in assay [9] it was 8.89 µM (inactive); in [10] it was 1.82 µM (inactive); in [11], 3.85 µM (inactive); in assay [12], 3.77 µM (inactive). Moreover, the GI50 was 3.37 µM (inactive) in assay [13], 3.8 µM (inactive) in assay [14], 4.81 µM (inactive) in [15] and 2.13 µM (inactive) in assay [16].
Take `COc1cccc(C2c3cc4c(cc3OC(NNS(=O)(=O)c3ccc(C)cc3)C2C)OCO4)c1O` (stereo unspecified): the GI50 in assay [17] was 20.4 µM (inactive); in assay [1], 18.9 µM (inactive); in [2], 25.5 µM (inactive); in assay [3], 18.5 µM (inactive); in assay [4], 0.537 µM (active); in [5] it was 29.2 µM (inactive). For the same compound, the GI50 is 38.8 µM (inactive) in assay [18]; 23.6 µM (inactive) in assay [6]; 23.8 µM (inactive) in assay [19]; 12.4 µM (inactive) in [7]; 24.7 µM (inactive) in [8]; 22.3 µM (inactive) in assay [10]. Besides, the GI50 is 21.6 µM (inactive) in assay [11]; 30.5 µM (inactive) in assay [12]; 11.2 µM (inactive) in [20]; 17.8 µM (inactive) in assay [13]; 20.3 µM (inactive) in assay [14]; 1.69 µM (inactive) in [15]. In addition, in assay [16], the GI50 was 17.9 µM (inactive).
Take `CCCCCCCC(CC(=O)NC(CO)C(=O)NC(CO)CC(C)C)OC(=O)CC(CCCCCCC)OC(=O)CC(CCCCCCC)OC1OC(C)C(O)C(OC2OC(C)C(OC(C)=O)C(O)C2O)C1O` (stereo unspecified): the GI50 was 7.91 µM (inactive) in assay [17]; 11.8 µM (inactive) in [1]; 6.64 µM (inactive) in assay [2]; 15.4 µM (inactive) in assay [3]; 5.6 µM (inactive) in assay [4]; 9.53 µM (inactive) in assay [5]. In addition, the GI50 in [18] is 16.3 µM (inactive); in assay [6], 15.7 µM (inactive); in assay [19], 10.6 µM (inactive); in [7], 4.04 µM (inactive); in assay [8], 3.67 µM (inactive); in assay [10] it was 17.1 µM (inactive). Also, the GI50 in [11] is 11 µM (inactive); in assay [12] it was 11.8 µM (inactive); in assay [20] it was 4.59 µM (inactive); in assay [13], 2.52 µM (inactive); in assay [14], 3.55 µM (inactive); in [15], 9.27 µM (inactive). The GI50 in assay [16] was 3.41 µM (inactive).
Regarding `Cc1c(N2C(=O)/C(=C/c3ccc(N(CCC#N)CCC#N)cc3)N=C2c2ccccc2)c(=O)n(-c2ccccc2)n1C`, the GI50 in [17], in assay [1], in assay [2], in assay [3], in assay [4] and in assay [5] was > 100 µM (inactive) in each case. Moreover, the GI50 in assay [18], in assay [19], in assay [8], in assay [9], in assay [10] and in [11] was > 100 µM (inactive) each time. The GI50 in [12], in assay [13], in [14], in assay [15] and in assay [16] was > 100 µM (inactive) each time.
With `O=C1c2ccccc2C(=O)c2sc(Nc3ccccc3C(F)(F)F)nc21`, the GI50 in assay [17] is 0.264 µM (active); in assay [1], 7.33 µM (inactive); in [2], 16.2 µM (inactive); in [3] it was 12.1 µM (inactive); in assay [4], 16.4 µM (inactive); in assay [5], 15.7 µM (inactive). Also, the GI50 is 16.7 µM (inactive) in assay [18]; 16.6 µM (inactive) in assay [6]; 12.4 µM (inactive) in assay [19]; 12.2 µM (inactive) in assay [7]; 21.7 µM (inactive) in assay [8]; 14 µM (inactive) in assay [10]. Besides, the GI50 in assay [11] is 19.9 µM (inactive); in assay [12], 16.9 µM (inactive); in assay [20], 15.1 µM (inactive); in [13], 8.89 µM (inactive); in assay [14] it was 10.2 µM (inactive).
Take `C#CC1(O)CCCCCCCCC2(CCCCCCCC1)OCCO2`: the GI50 in assay [1] was 15.4 µM (inactive); in assay [2], 19.5 µM (inactive); in assay [3] it was < 0.01 µM (active); in assay [4] it was 17.6 µM (inactive); in assay [5], 16.8 µM (inactive); in assay [18], 18.7 µM (inactive). Moreover, the GI50 is 13.8 µM (inactive) in [6]; 19.5 µM (inactive) in assay [19]; 12.8 µM (inactive) in assay [7]; 19.6 µM (inactive) in [8]; 18.1 µM (inactive) in assay [9]; 29.7 µM (inactive) in assay [10]. The GI50 in [11] is 18 µM (inactive); in [12], 17.3 µM (inactive); in assay [13], 17.4 µM (inactive); in assay [14], 18.6 µM (inactive); in assay [15] it was 19.4 µM (inactive); in [16], 18.3 µM (inactive).
`O=C(CSSCC(=O)OCCS(=O)(=O)Nc1ccc(Br)cc1)OCCS(=O)(=O)Nc1ccc(Br)cc1`: the GI50 in assay [1] was 13.1 µM (inactive); in assay [2], 21.7 µM (inactive); in [3] it was 28.6 µM (inactive); in assay [4], > 10 µM (inactive); in assay [5], 11.4 µM (inactive); in assay [18] it was 18.9 µM (inactive). Besides, the GI50 in assay [6] is 18 µM (inactive); in assay [19] it was 3.8 µM (inactive); in [8], 12.8 µM (inactive); in assay [10], > 10 µM (inactive); in assay [11], 10.2 µM (inactive); in [20], 28.2 µM (inactive). The GI50 in [13] is 11.6 µM (inactive); in assay [14] it was 13.3 µM (inactive); in assay [15] it was 10.4 µM (inactive); in assay [16] it was 4.1 µM (inactive).
With `Cc1ccccc1-n1c(=O)sc2c(=O)n(-c3ccccc3)c(=S)[nH]c21`, the GI50 in assay [1], in assay [2], in [3], in [4], in [5] and in assay [18] was > 100 µM (inactive) throughout. Besides, the GI50 in assay [6], in [19], in assay [8], in assay [10], in assay [11] and in assay [20] was > 100 µM (inactive) in each case. The GI50 in assay [13], in assay [14], in [15] and in assay [16] was > 100 µM (inactive) each time.
As to `CCCCNc1nc(C#N)c(N)s1`, the GI50 in [1], in [2], in assay [3], in assay [4], in assay [5] and in assay [18] was > 100 µM (inactive) in each case. Also, the GI50 in [6], in [19], in [8], in assay [10], in [11] and in assay [20] was > 100 µM (inactive) in each case. Besides, the GI50 in [13], in assay [14], in [15] and in [16] was > 100 µM (inactive) throughout.
As to `COc1cc(OC)c(C2c3cc4c(cc3OC(N3CCCC3)C2C)OCO4)c(OC)c1` (stereo unspecified), the GI50 in [1] is 4.26 µM (inactive); in [2], 18.4 µM (inactive); in assay [3], 7.67 µM (inactive); in assay [4], 15.9 µM (inactive); in assay [5], 14.8 µM (inactive); in assay [6], 5.11 µM (inactive). The GI50 in assay [7] was 15.7 µM (inactive); in assay [8] it was 12.2 µM (inactive); in assay [9] it was 15.2 µM (inactive); in assay [10] it was 16.5 µM (inactive); in assay [11], 12.1 µM (inactive); in assay [12] it was 13 µM (inactive). In addition, the GI50 in [13] was > 10 µM (inactive); in [14] it was 10.6 µM (inactive); in assay [15], 16.3 µM (inactive); in assay [16] it was 10.3 µM (inactive).
On to `CCCCN(CCCC)CC(C(=O)Nc1ccc([N+](=O)[O-])cc1[N+](=O)[O-])/C(C)=N\NC(=O)C[N+](C)(C)C` (stereo unspecified), for which the GI50 in assay [1] was > 100 µM (inactive); in [2], > 100 µM (inactive); in assay [3], 66.5 µM (inactive); in [4] it was > 100 µM (inactive); in assay [5], > 100 µM (inactive); in assay [18] it was > 100 µM (inactive). Also, the GI50 in assay [6] was > 100 µM (inactive); in assay [19], > 100 µM (inactive); in assay [8], > 100 µM (inactive); in assay [10] it was > 100 µM (inactive); in assay [11], > 100 µM (inactive); in assay [20] it was 29 µM (inactive). The GI50 in [13] was 35.7 µM (inactive); in assay [14] it was > 100 µM (inactive); in assay [15], > 100 µM (inactive); in assay [16], 75.9 µM (inactive).
